Assay results reported in patent publication US20170119630A1, “BIPHASIC COMPOSITION FOR PERFUME AND PERSONAL CARE APPLICATIONS AND USES THEREOF” (Coty Inc., priority 2014, published 2017).

Legend:
[1] = Single fragrance migration study in biphasic compositions, GC/MS analysis; type: physicochemical; conditions: for Result in % based on GC/MS analysis, Regular EDT aromatics %: Regular EDT with Fragrance oil Giddy 11598/00; for migration between phases when the amount of water is increased: water ~7.4 wt % to ~27.25 wt %, FIG. 1, GC/MS
Text: FIG. 1 has been obtained using GC/MS analytical tool. Depending primary on the log P of fragrances and/or secondary of the chemical families/functions of those fragrances, modification of the polarity will have the effect of pushing the fragrance in one preferred phase of the biphasic composition.
To determine the distribution of first fragrance and second fragrance in the biphasic composition three formulations (regular EDT, biphasic composition with low amount of water in the water-alcohol phase, biphasic composition with high amount of water in the water-alcohol phase) were tested and compared using GC/MS analysis and Expert evaluator.

[2] = colorant; cited from earlier work
[3] = Bi phase formula high amount of water in the bottom phase (total water ~27.24%)
[4] = Bi phase formula low amount of water in the bottom phase (total water ~7.4%)

| Compound | Result in % based on GC/MS analysis, Lower phase aromatics % [1, 3] | Result in % based on GC/MS analysis, Upper phase aromatics % [1, 3] | Result in % based on GC/MS analysis, Lower phase aromatics % [1, 4] | Result in % based on GC/MS analysis, Upper phase aromatics % [1, 4] | Result in % based on GC/MS analysis, Regular EDT aromatics % [1] | migration between phases when the amount of water is increased [1] | solubility (oil-soluble / water-soluble) [2] |
| --- | --- | --- | --- | --- | --- | --- | --- |
| C=CC(C)(O)CCC=C(C)CC (mixture of isomers) [ethyl linalol] | 28.40% | 0.83% | 6.86% | 1.11% | 4.39% | stays in the hydro-alcoholic phase | – |
| CC(=O)OC1CCCCC1C(C)(C)C (single isomer, unassigned) [agrumex major isomer, agrumex] | 0.16% | 0.47% | 0.40% | 0.45% | 0.41% | – | – |
| O=C1c2ccccc2C(=O)C1c1ccc2ccccc2n1 [D&C Yellow No. 11] | – | – | – | – | – | – | oil-soluble |
| O=C(O)c1nn(-c2ccc(S(=O)(=O)O)cc2)c(O)c1N=Nc1ccc(S(=O)(=O)O)cc1 [FD&C Yellow No. 5] | – | – | – | – | – | – | water-soluble |
| CCCCCCCCCCCCCC(=O)OC(C)C [Isopropyl Myristate IPM, Isopropyl Myristate] | 0.00% | 13.93% | 4.96% | 23.40% | 13.34% | migrate following the same rules in the oil phase | – |
| CC(C)CC1CC(C)(O)CCO1 (stereo not shown) [florosa] | 5.86% | 3.93% | 5.12% | 1.86% | 3.82% | – | – |
| CC1COCc2cc3c(cc21)C(C)(C)C(C)C3(C)C (stereo not drawn) [galaxolide (main peak), galaxolide] | 1.64% | 22.92% | 15.47% | 26.53% | 20.25% | migrating in the oily phase | – |
| CCCCCC1C(=O)CCC1CC(=O)OC (stereo not drawn) [hedione trans, hedione] | 26.10% | 11.94% | 18.40% | 6.64% | 13.28% | – | – |
| CC(C=O)Cc1ccc2c(c1)OCO2 (stereo not shown) [helional] | 4.10% | 0.91% | 2.03% | 0.40% | 1.32% | – | – |
| CCCCCCC(C=O)=Cc1ccccc1 [hexylcinnamic aid, hexylcinnamic aldehyde] | 0.46% | 1.67% | 1.65% | 1.43% | 1.54% | migrating in the oily phase | – |
| CC(CC=O)CCCC(C)(C)O (stereo not shown) [hydroxycitronelial] | 4.13% | 0.12% | 0.88% | 0.06% | 0.53% | – | – |
| CC(C=O)Cc1ccc(C(C)(C)C)cc1 (stereo not shown) [lilial] | 2.43% | 4.18% | 4.90% | 2.70% | 3.92% | – | – |
| C=CC(C)(CCC=C(C)C)OC(C)=O (stereo not shown) [linalyl acetate] | 1.63% | 3.89% | 3.52% | 3.38% | 3.37% | – | – |
